Experimental data taken from the supplement of paper PMC10307832.

Tests used:
Assay in all cases: relative viability (nuclei count vs DMSO), 5 days (fraction); higher = more cells survive
RU-SKI 43 + Palbociclib = compound: CC[C@@H](C)CNCC(=O)N1CCC2=C([C@@H]1COC3=CC=CC(=C3)C)C=CS2 [RU-SKI 43] + CC(=O)c1c(C)c2cnc(Nc3ccc(N4CCNCC4)cn3)nc2n(C2CCCC2)c1=O [Palbociclib] (partner 0.5 µM)
Summary of the method: (§1)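 Values are medians from duplicate plates. Each reflects relative viability, defined as the nuclei count of treated wells over that of vehicle wells. Lung cancer cell lines in 1536-well plates were pin-tool dosed one day after seeding with one drug alone or with a fixed anchor-drug dose plus five library-drug doses (not always all listed) in √10 steps, then fixed, stained and imaged at 4× after 5 days.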

RU-SKI 43 + Pictilisib = compound: CC[C@@H](C)CNCC(=O)N1CCC2=C([C@@H]1COC3=CC=CC(=C3)C)C=CS2 [RU-SKI 43] + CS(=O)(=O)N1CCN(Cc2cc3nc(-c4cccc5[nH]ncc45)nc(N4CCOCC4)c3s2)CC1 [Pictilisib] (partner 1 µM)
Summary of the method: as §1

Irinotecan + Lapatinib = compound: CCc1c2c(nc3ccc(OC(=O)N4CCC(N5CCCCC5)CC4)cc13)-c1cc3c(c(=O)n1C2)COC(=O)[C@]3(O)CC [Irinotecan] + CS(=O)(=O)CCNCc1ccc(-c2ccc3ncnc(Nc4ccc(OCc5cccc(F)c5)c(Cl)c4)c3c2)o1 [Lapatinib] (partner 2 µM)
Summary of the method: as §1

Irinotecan + Olaparib = compound: CCc1c2c(nc3ccc(OC(=O)N4CCC(N5CCCCC5)CC4)cc13)-c1cc3c(c(=O)n1C2)COC(=O)[C@]3(O)CC [Irinotecan] + O=C(c1cc(Cc2n[nH]c(=O)c3ccccc23)ccc1F)N1CCN(C(=O)C2CC2)CC1 [Olaparib] (partner 8 µM)
Summary of the method: as §1

## NCI-H2347
RU-SKI 43 + Palbociclib; first compound 0.1 µM
  relative viability: 0.434
RU-SKI 43 + Palbociclib; first compound 0.3162 µM
  relative viability: 0.329
RU-SKI 43 + Palbociclib; first compound 1 µM
  relative viability: 0.441
RU-SKI 43 + Palbociclib; first compound 3.162 µM
  relative viability: 0.403
RU-SKI 43 + Palbociclib; first compound 10 µM
  relative viability: 0.394
RU-SKI 43 + Pictilisib; first compound 0.1 µM
  relative viability: 0.589
RU-SKI 43 + Pictilisib; first compound 0.3162 µM
  relative viability: 1.18
RU-SKI 43 + Pictilisib; first compound 1 µM
  relative viability: 0.595
RU-SKI 43 + Pictilisib; first compound 3.162 µM
  relative viability: 0.72
RU-SKI 43 + Pictilisib; first compound 10 µM
  relative viability: 0.574
Irinotecan + Lapatinib; first compound 0.6325 µM
  relative viability: 0.682
Irinotecan + Lapatinib; first compound 2 µM
  relative viability: 0.738
Irinotecan + Lapatinib; first compound 6.325 µM
  relative viability: 0.449
Irinotecan + Lapatinib; first compound 20 µM
  relative viability: 0.444
Irinotecan + Olaparib; first compound 0.6325 µM
  relative viability: 0.471
Irinotecan + Olaparib; first compound 2 µM
  relative viability: 0.491
Irinotecan + Olaparib; first compound 6.325 µM
  relative viability: 0.379
Irinotecan + Olaparib; first compound 20 µM
  relative viability: 0.555

## H3255
RU-SKI 43 + Palbociclib; first compound 0.1 µM
  relative viability: 0.313
RU-SKI 43 + Palbociclib; first compound 0.3162 µM
  relative viability: 0.316
RU-SKI 43 + Palbociclib; first compound 1 µM
  relative viability: 0.331
RU-SKI 43 + Palbociclib; first compound 3.162 µM
  relative viability: 0.32
RU-SKI 43 + Palbociclib; first compound 10 µM
  relative viability: 0.301
RU-SKI 43 + Pictilisib; first compound 0.1 µM
  relative viability: 0.435
RU-SKI 43 + Pictilisib; first compound 0.3162 µM
  relative viability: 0.412
RU-SKI 43 + Pictilisib; first compound 1 µM
  relative viability: 0.512
RU-SKI 43 + Pictilisib; first compound 3.162 µM
  relative viability: 0.494
RU-SKI 43 + Pictilisib; first compound 10 µM
  relative viability: 0.455
Irinotecan + Lapatinib; first compound 0.6325 µM
  relative viability: 0.206
Irinotecan + Lapatinib; first compound 2 µM
  relative viability: 0.214
Irinotecan + Lapatinib; first compound 6.325 µM
  relative viability: 0.224
Irinotecan + Lapatinib; first compound 20 µM
  relative viability: 0.23
Irinotecan + Olaparib; first compound 0.6325 µM
  relative viability: 0.464
Irinotecan + Olaparib; first compound 2 µM
  relative viability: 0.446
Irinotecan + Olaparib; first compound 6.325 µM
  relative viability: 0.343
Irinotecan + Olaparib; first compound 20 µM
  relative viability: 0.362

## NCI-H2009
RU-SKI 43 + Palbociclib; first compound 0.1 µM
  relative viability: 0.181
RU-SKI 43 + Palbociclib; first compound 0.3162 µM
  relative viability: 0.214
RU-SKI 43 + Palbociclib; first compound 1 µM
  relative viability: 0.219
RU-SKI 43 + Palbociclib; first compound 3.162 µM
  relative viability: 0.229
RU-SKI 43 + Palbociclib; first compound 10 µM
  relative viability: 0.194
RU-SKI 43 + Pictilisib; first compound 0.1 µM
  relative viability: 0.788
RU-SKI 43 + Pictilisib; first compound 0.3162 µM
  relative viability: 1.06
RU-SKI 43 + Pictilisib; first compound 1 µM
  relative viability: 0.9
RU-SKI 43 + Pictilisib; first compound 3.162 µM
  relative viability: 0.883
RU-SKI 43 + Pictilisib; first compound 10 µM
  relative viability: 0.773
Irinotecan + Lapatinib; first compound 0.6325 µM
  relative viability: 0.308
Irinotecan + Lapatinib; first compound 2 µM
  relative viability: 0.445
Irinotecan + Lapatinib; first compound 6.325 µM
  relative viability: 0.294
Irinotecan + Lapatinib; first compound 20 µM
  relative viability: 0.12
Irinotecan + Olaparib; first compound 0.6325 µM
  relative viability: 0.508
Irinotecan + Olaparib; first compound 2 µM
  relative viability: 0.287
Irinotecan + Olaparib; first compound 6.325 µM
  relative viability: 0.194
Irinotecan + Olaparib; first compound 20 µM
  relative viability: 0.128

## NCI-H460
RU-SKI 43 + Palbociclib; first compound 0.1 µM
  relative viability: 0.222
RU-SKI 43 + Palbociclib; first compound 0.3162 µM
  relative viability: 0.165
RU-SKI 43 + Palbociclib; first compound 1 µM
  relative viability: 0.183
RU-SKI 43 + Palbociclib; first compound 3.162 µM
  relative viability: 0.199
RU-SKI 43 + Palbociclib; first compound 10 µM
  relative viability: 0.128
RU-SKI 43 + Pictilisib; first compound 0.1 µM
  relative viability: 0.335
RU-SKI 43 + Pictilisib; first compound 0.3162 µM
  relative viability: 0.35
RU-SKI 43 + Pictilisib; first compound 1 µM
  relative viability: 0.45
RU-SKI 43 + Pictilisib; first compound 3.162 µM
  relative viability: 0.263
RU-SKI 43 + Pictilisib; first compound 10 µM
  relative viability: 0.238
Irinotecan + Lapatinib; first compound 0.6325 µM
  relative viability: 0.287
Irinotecan + Lapatinib; first compound 2 µM
  relative viability: 0.475
Irinotecan + Lapatinib; first compound 6.325 µM
  relative viability: 0.0664
Irinotecan + Lapatinib; first compound 20 µM
  relative viability: 0.0537
Irinotecan + Olaparib; first compound 2 µM
  relative viability: 0.214
Irinotecan + Olaparib; first compound 6.325 µM
  relative viability: 0.0942
Irinotecan + Olaparib; first compound 20 µM
  relative viability: 0.125

## COR-L 105
RU-SKI 43 + Palbociclib; first compound 0.1 µM
  relative viability: 0.39
RU-SKI 43 + Palbociclib; first compound 0.3162 µM
  relative viability: 0.367
RU-SKI 43 + Palbociclib; first compound 1 µM
  relative viability: 0.433
RU-SKI 43 + Palbociclib; first compound 3.162 µM
  relative viability: 0.395
RU-SKI 43 + Palbociclib; first compound 10 µM
  relative viability: 0.363
RU-SKI 43 + Pictilisib; first compound 0.1 µM
  relative viability: 0.436
RU-SKI 43 + Pictilisib; first compound 0.3162 µM
  relative viability: 0.361
RU-SKI 43 + Pictilisib; first compound 1 µM
  relative viability: 0.377
RU-SKI 43 + Pictilisib; first compound 3.162 µM
  relative viability: 0.379
RU-SKI 43 + Pictilisib; first compound 10 µM
  relative viability: 0.364
Irinotecan + Lapatinib; first compound 0.6325 µM
  relative viability: 0.358
Irinotecan + Lapatinib; first compound 2 µM
  relative viability: 0.431
Irinotecan + Lapatinib; first compound 6.325 µM
  relative viability: 0.452
Irinotecan + Lapatinib; first compound 20 µM
  relative viability: 0.272
Irinotecan + Olaparib; first compound 0.6325 µM
  relative viability: 0.644
Irinotecan + Olaparib; first compound 2 µM
  relative viability: 0.513
Irinotecan + Olaparib; first compound 6.325 µM
  relative viability: 0.552
Irinotecan + Olaparib; first compound 20 µM
  relative viability: 0.425

## SW 900
RU-SKI 43 + Palbociclib; first compound 0.1 µM
  relative viability: 0.542
RU-SKI 43 + Palbociclib; first compound 0.3162 µM
  relative viability: 0.513
RU-SKI 43 + Palbociclib; first compound 1 µM
  relative viability: 0.522
RU-SKI 43 + Palbociclib; first compound 3.162 µM
  relative viability: 0.522
RU-SKI 43 + Palbociclib; first compound 10 µM
  relative viability: 0.45
Irinotecan + Olaparib; first compound 2 µM
  relative viability: 0.474
Irinotecan + Olaparib; first compound 6.325 µM
  relative viability: 0.334
Irinotecan + Olaparib; first compound 20 µM
  relative viability: 0.384

## A549
RU-SKI 43 + Pictilisib; first compound 0.1 µM
  relative viability: 0.511
RU-SKI 43 + Pictilisib; first compound 0.3162 µM
  relative viability: 0.742
RU-SKI 43 + Pictilisib; first compound 1 µM
  relative viability: 0.594
RU-SKI 43 + Pictilisib; first compound 3.162 µM
  relative viability: 0.439
RU-SKI 43 + Pictilisib; first compound 10 µM
  relative viability: 0.384
Irinotecan + Lapatinib; first compound 0.6325 µM
  relative viability: 0.723
Irinotecan + Lapatinib; first compound 2 µM
  relative viability: 0.529
Irinotecan + Lapatinib; first compound 6.325 µM
  relative viability: 0.112
Irinotecan + Lapatinib; first compound 20 µM
  relative viability: 0.0497
Irinotecan + Olaparib; first compound 0.6325 µM
  relative viability: 0.073
Irinotecan + Olaparib; first compound 2 µM
  relative viability: 0.186
Irinotecan + Olaparib; first compound 6.325 µM
  relative viability: 0.0779
Irinotecan + Olaparib; first compound 20 µM
  relative viability: 0.0719

## NCI-H1563
RU-SKI 43 + Pictilisib; first compound 0.1 µM
  relative viability: 0.682
RU-SKI 43 + Pictilisib; first compound 0.3162 µM
  relative viability: 0.653
RU-SKI 43 + Pictilisib; first compound 1 µM
  relative viability: 0.689
RU-SKI 43 + Pictilisib; first compound 3.162 µM
  relative viability: 0.701
RU-SKI 43 + Pictilisib; first compound 10 µM
  relative viability: 0.646
Irinotecan + Lapatinib; first compound 0.6325 µM
  relative viability: 0.674
Irinotecan + Lapatinib; first compound 2 µM
  relative viability: 1.05
Irinotecan + Lapatinib; first compound 6.325 µM
  relative viability: 0.954
Irinotecan + Lapatinib; first compound 20 µM
  relative viability: 0.441

## IA-LM
RU-SKI 43 + Pictilisib; first compound 0.1 µM
  relative viability: 0.353
RU-SKI 43 + Pictilisib; first compound 0.3162 µM
  relative viability: 0.321
RU-SKI 43 + Pictilisib; first compound 1 µM
  relative viability: 0.397
RU-SKI 43 + Pictilisib; first compound 3.162 µM
  relative viability: 0.385
RU-SKI 43 + Pictilisib; first compound 10 µM
  relative viability: 0.404
Irinotecan + Lapatinib; first compound 0.6325 µM
  relative viability: 0.426
Irinotecan + Lapatinib; first compound 2 µM
  relative viability: 0.26
Irinotecan + Lapatinib; first compound 6.325 µM
  relative viability: 0.134
Irinotecan + Lapatinib; first compound 20 µM
  relative viability: 0.0941
Irinotecan + Olaparib; first compound 0.6325 µM
  relative viability: 0.537
Irinotecan + Olaparib; first compound 2 µM
  relative viability: 0.177
Irinotecan + Olaparib; first compound 6.325 µM
  relative viability: 0.166
Irinotecan + Olaparib; first compound 20 µM
  relative viability: 0.0811

## NCI-H2342
RU-SKI 43 + Palbociclib; first compound 0.1 µM
  relative viability: 0.524
RU-SKI 43 + Palbociclib; first compound 1 µM
  relative viability: 0.547
RU-SKI 43 + Palbociclib; first compound 3.162 µM
  relative viability: 0.524
RU-SKI 43 + Palbociclib; first compound 10 µM
  relative viability: 0.488
Irinotecan + Olaparib; first compound 0.6325 µM
  relative viability: 0.412
Irinotecan + Olaparib; first compound 2 µM
  relative viability: 0.386
Irinotecan + Olaparib; first compound 6.325 µM
  relative viability: 0.352
Irinotecan + Olaparib; first compound 20 µM
  relative viability: 0.384

## NCI-H596
RU-SKI 43 + Pictilisib; first compound 0.1 µM
  relative viability: 0.379
RU-SKI 43 + Pictilisib; first compound 0.3162 µM
  relative viability: 0.43
RU-SKI 43 + Pictilisib; first compound 1 µM
  relative viability: 0.42
RU-SKI 43 + Pictilisib; first compound 3.162 µM
  relative viability: 0.414
RU-SKI 43 + Pictilisib; first compound 10 µM
  relative viability: 0.57
Irinotecan + Lapatinib; first compound 0.6325 µM
  relative viability: 1.11
Irinotecan + Lapatinib; first compound 2 µM
  relative viability: 1.03
Irinotecan + Lapatinib; first compound 6.325 µM
  relative viability: 0.613
Irinotecan + Lapatinib; first compound 20 µM
  relative viability: 0.579
Irinotecan + Olaparib; first compound 0.6325 µM
  relative viability: 0.638
Irinotecan + Olaparib; first compound 2 µM
  relative viability: 0.707
Irinotecan + Olaparib; first compound 6.325 µM
  relative viability: 0.64
Irinotecan + Olaparib; first compound 20 µM
  relative viability: 0.828
